Data: patent US5849755A, “3-amidochromanylsulfonyl(thio)ureas, processes for their preparation, their use, and pharmaceutical preparations comprising them” (Hoechst Aktiengesellschaft, priority 1996, dated 1998)

How the values were obtained:
[1] = test system: papillary muscle of the guinea pig; assay: Test 1: Duration of the action potential of the papillary muscle of the guinea pig (APD95, shortened by HOE 234); format: cell-based; details: HOE 234 1 μg/ml in bath, 30 minutes after addition, mean of n = 3, control with HOE 234 alone <40
Source text: Test 1: Duration of the action potential of the papillary muscle of the guinea pig
ATP deficiency states such as are observed in the cardiac muscle cell during ischemia lead to a shortening of the duration of the action potential. They are regarded as one of the causes of so-called "re-entry arrhythmias," which can cause sudden cardiac death. The opening of ATP-sensitive potassium channels as a result of the fall in ATP is regarded as the cause of this.
A standard microelectrode technique was employed to measure the action potential. For this, guinea pigs of both sexes were sacrificed by a blow to the head, the hearts were removed and the papillary muscles were separated out and suspended in an organ bath. The organ bath was flushed with Ringer's solution (0.9% NaCl, 0.048% KCl, 0.024% CaCl2, 0.02% NaHCO3 and 0.1% glucose) and gassed with a mixture of 95% oxygen and 5% carbon dioxide at a temperature of 36° C. The muscle was stimulated via an electrode with rectangular pulses of 1 V and 1 ms duration and a frequency of 2 Hz. The action potential was derived through a glass microelectrode which was inserted intracellularly and filled with 3M KCl solution, and recorded. The substances to be tested were added to the Ringer's solution in a concentration of 2×10^-6 mol per liter or 2×10^-5 mol per liter. The action potential was amplified with a Hugo Sachs amplifier and shown on an oscilloscope. The duration of the action potential in milliseconds (ms) was determined at a degree of repolarization of 95% (APD95). Shortenings of the action potential were induced by addition of a solution of the potassium channel opener HOE 234 (Rilmakalim) (W. Linz, E. Klaus, U. Albus, R. H. A. Becker, D. Mania, H. C. Englert, B. A. Scholkens, Arzneimittelforschung/Drug Research, Volume 42 (II), 1992, 1180-1185), a concentration of HOE 234 in the bath solution of 1 μg/ml being established. The test substances were added to the bath solution as stock solutions in propanediol. The values stated are based on measurements 30 minutes after the addition. As a control, the APD95 value was determined in the presence of HOE 234 and in the absence of the test substance.
The measurement values (mean values from n experiments) are followed by the corresponding blank values in parentheses. The blank values are the APD95 values which were measured at the start of the experiment without HOE 234 and test substance in the Ringer's solution. The values obtained show the normalizing effect of the compounds according to the invention on a shortened duration of the action potential.

RINm5F cells = assay: Test 2: Membrane potential on isolated β cells (RINm5F, whole cell patch clamp); format: cell-based; details: diazoxide 100 μmol/l in bath, 34°±1° C.
Source text: Test 2: Membrane potential on isolated β cells The action mechanism of hypoglycemic sulfonylureas is understood in principle. The β cells of the pancreas are the target organ of sulfonylureas, where they bring about a release of the hypoglycemic hormone insulin by influencing the electrical potential of the cell membrane. A hypoglycemic sulfonylurea, for example glibenclamide, has the effect of depolarizing the cell membrane, which leads to an increased inflow of calcium ions and, as a consequence thereof, to the release of insulin. The extent AU of this depolarization of the cell membrane caused by the substances according to the invention was determined on insulin-secreting RINm5F cells, a pancreas tumor cell line. The activity of a compound in this model predicts the extent of the hypoglycemic potential of this compound. Cell cultures of RINm5F cells: RINm5F cells were cultured at 37° C. in RPMI 1640 culture medium (Flow) to which 11 mM glucose, 10% (volume/volume) fetal calf serum, 2 mM glutamine and 50 μg/ml of gentamycin were added. The cells were sown on Petri dishes every 2 to 3 days and kept at a temperature of 37° C. in a moistened atmosphere of […] and 5% CO2. For the investigations, the cells were isolated by incubation (about 3 minutes) in a Ca^2+ -free medium which comprised 0.25% trypsin. Measurement method: Isolated RINm5F cells were introduced into a Plexiglas chamber on an inverse microscope which was equipped with a differential interference contrast lens. Under visual control (400-fold magnification),a fire-polished micropipette with an opening diameter of about 1 μm was placed on the cell with the aid of a micromanipulator. By applying a slight reduced pressure to the inside of the patch pipette, a high electrical seal was initially established between the glass and the cell membrane. By increasing the reduced pressure, the membrane patch under the […] pipette was then broken open. In this whole cell configuration,the cell potential was recorded with the aid of a patch clamp amplifier (L/M EPC 7, List, Darmstadt) and the whole cell current was measured by applying a voltage ramp. […] Stock solutions (concentration 100 mmol/l) of the test substances in dimethyl sulfoxide (DMSO) and corresponding dilutions in NaCl solution were prepared. DMSO alone had no effect on the cell potential. To stabilize the cell potential, diazoxide (100 μmol/l), an opener of ATP-sensitive K^+ channels, was added to the bath solution in all experiments. All experiments were carried out at 34°±1° C. The following values ΔU (changes in the cell potentials caused by the addition of the test substances) were measured. The control values in parentheses are the cell potentials U before the addition of the test substances. For comparison the values obtained in this test with glibenclamide, a typical hypoglycemic benzenesulfonylurea, are given.

## CNC(=O)NS(=O)(=O)c1cc2c(cc1OC)OCC(NC(=O)c1cc(Cl)ccc1OC)C2 (stereo not shown) [Example 1, 3-(5-Chloro-2-methoxybenzamido)-6-(methylaminocarbonylaminosulfonyl)-7-methoxychroman]
[1]; test substance 20 μmol/l
  APD95 -HOE 234: 157 ± 36 ms
RINm5F cells; 1 μmol/l
  ΔU (mV), change in the cell potential caused by the addition of the test substance: 6 mV
RINm5F cells; 10 μmol/l
  ΔU (mV), change in the cell potential caused by the addition of the test substance: 24 mV

## CCCNC(=O)NS(=O)(=O)c1cc2c(cc1OC)OCC(NC(=O)c1cc(Cl)ccc1OC)C2 (stereo not shown) [Example 3, 3-(5-Chloro-2-methoxybenzamido)-6-(n-propylamino-carbonylaminosulfonyl)-7-methoxychroman]
[1]; test substance 20 μmol/l
  APD95 -HOE 234: 134 ± 9 ms
RINm5F cells; 1 μmol/l
  ΔU (mV), change in the cell potential caused by the addition of the test substance: 18 mV
RINm5F cells; 10 μmol/l
  ΔU (mV), change in the cell potential caused by the addition of the test substance: 23 mV

## CNC(=S)NS(=O)(=O)c1cc2c(cc1OC)OCC(NC(=O)c1cc(Cl)ccc1OC)C2 (stereo not shown) [Example 6]
[1]; test substance 2 μmol/l
  APD95 -HOE 234: 145 ± 19.1 ms
RINm5F cells; 1 μmol/l
  ΔU (mV), change in the cell potential caused by the addition of the test substance: 3 mV

## CCNC(=S)NS(=O)(=O)c1cc2c(cc1OC)OCC(NC(=O)c1cc(Cl)ccc1OC)C2 (stereo not shown) [Example 7, 3-(5-Chloro-2-methoxybenzamido)-6-(ethylaminothiocarbonylaminosulfonyl)-7-methoxychroman]
[1]; test substance 2 μmol/l
  APD95 -HOE 234: 130 ± 28.1 ms
RINm5F cells; 1 μmol/l
  ΔU (mV), change in the cell potential caused by the addition of the test substance: 29 mV

## COc1ccc(F)cc1C(=O)NC1Cc2cc(S(=O)(=O)NC(=S)NC(C)C)c(OC)cc2OC1(C)C (stereo not shown) [Example 21, 3-(5-Fluoro-2-methoxybenzamido)-2,2-dimethyl-6-(isopropylaminothiocarbonylaminosulfonyl)-7-methoxychroman]
[1]; test substance 2 μmol/l
  APD95 -HOE 234: 67 ± 10 ms

## COc1ccc(Cl)cc1C(=O)NCCc1ccc(S(=O)(=O)NC(=O)NC2CCCCC2)cc1 [Glibenclamide, glibenclamide, reference compound]
RINm5F cells; 1 μmol/l
  ΔU (mV), change in the cell potential caused by the addition of the test substance: 47 mV
RINm5F cells; 10 μmol/l
  ΔU (mV), change in the cell potential caused by the addition of the test substance: 46 mV
